Source: ChEMBL document CHEMBL1201862, “PubChem BioAssay data set” (2004)
Calls of active or inactive are those of the source.

Legend:
Paired box protein Pax-8 = Paired box protein Pax-8 (Homo sapiens, UniProt Q06710); assay: inhibitors of PAX8-driven TPO luciferase reporter, dose response, RMG-I cells, cherry-pick (AID 687027); type: functional, cell-based;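 note: luciferase reporter driven by Pax8 target thyroperoxidase promoter measured by SteadyGlo luminescence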
[1] = IOSE-T80 ovarian epithelial cell cytotoxicity, dose response, cytotoxicity control for PAX8 inhibitor project, plate reader, dry powder samples (AID 743045); type: functional, cell-based
[2] = NIH:OVCAR-3 ovarian cancer cell cytotoxicity, dose response, PAX8 inhibitor project, plate reader, dry powder samples (AID 743044); type: functional, cell-based
[3] = IGROV1 ovarian cancer cell cytotoxicity, dose response, PAX8 inhibitor project, plate reader, dry powder samples (AID 743043); type: functional, cell-based; conditions: IGROV-1
[4] = cytotoxicity in OVCAR8 ovarian cancer cells, dose response, PAX8 project, cell-based, plate reader, dry powder samples (AID 743197); type: functional; conditions: OVCAR-8
[5] = biological target: T1, Microphthalmia-associated transcription factor (Homo sapiens, UniProt O75030); assay: TRPM1 promoter luciferase signal decrease, dose response, MITF inhibitor project, cell-based, SK-MEL-5, cherry-picked, set 3 (AID 493073); type: functional
T1 sequence (O75030 whole entry): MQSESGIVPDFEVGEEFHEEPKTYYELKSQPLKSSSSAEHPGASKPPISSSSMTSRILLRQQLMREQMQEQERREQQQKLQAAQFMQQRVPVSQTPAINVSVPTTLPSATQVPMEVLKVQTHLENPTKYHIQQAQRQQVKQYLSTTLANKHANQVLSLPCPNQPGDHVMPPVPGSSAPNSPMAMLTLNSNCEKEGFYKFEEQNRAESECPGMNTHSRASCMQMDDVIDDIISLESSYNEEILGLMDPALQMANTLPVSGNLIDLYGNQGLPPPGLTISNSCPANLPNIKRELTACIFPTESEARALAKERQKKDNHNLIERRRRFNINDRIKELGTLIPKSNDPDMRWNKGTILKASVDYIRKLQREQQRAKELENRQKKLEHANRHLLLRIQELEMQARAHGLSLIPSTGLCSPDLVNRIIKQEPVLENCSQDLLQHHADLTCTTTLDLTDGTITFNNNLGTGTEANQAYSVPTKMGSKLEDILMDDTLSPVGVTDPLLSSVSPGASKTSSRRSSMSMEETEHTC

[6] = biological target: T2, Replicative DNA helicase DnaB (Mycobacterium tuberculosis, UniProt P9WMR3); assay: DnaB intein splicing inhibitors, dose response, biochemical, cell-free fluorescence (AID 449749); type: functional
T2 sequence (P9WMR3 whole entry): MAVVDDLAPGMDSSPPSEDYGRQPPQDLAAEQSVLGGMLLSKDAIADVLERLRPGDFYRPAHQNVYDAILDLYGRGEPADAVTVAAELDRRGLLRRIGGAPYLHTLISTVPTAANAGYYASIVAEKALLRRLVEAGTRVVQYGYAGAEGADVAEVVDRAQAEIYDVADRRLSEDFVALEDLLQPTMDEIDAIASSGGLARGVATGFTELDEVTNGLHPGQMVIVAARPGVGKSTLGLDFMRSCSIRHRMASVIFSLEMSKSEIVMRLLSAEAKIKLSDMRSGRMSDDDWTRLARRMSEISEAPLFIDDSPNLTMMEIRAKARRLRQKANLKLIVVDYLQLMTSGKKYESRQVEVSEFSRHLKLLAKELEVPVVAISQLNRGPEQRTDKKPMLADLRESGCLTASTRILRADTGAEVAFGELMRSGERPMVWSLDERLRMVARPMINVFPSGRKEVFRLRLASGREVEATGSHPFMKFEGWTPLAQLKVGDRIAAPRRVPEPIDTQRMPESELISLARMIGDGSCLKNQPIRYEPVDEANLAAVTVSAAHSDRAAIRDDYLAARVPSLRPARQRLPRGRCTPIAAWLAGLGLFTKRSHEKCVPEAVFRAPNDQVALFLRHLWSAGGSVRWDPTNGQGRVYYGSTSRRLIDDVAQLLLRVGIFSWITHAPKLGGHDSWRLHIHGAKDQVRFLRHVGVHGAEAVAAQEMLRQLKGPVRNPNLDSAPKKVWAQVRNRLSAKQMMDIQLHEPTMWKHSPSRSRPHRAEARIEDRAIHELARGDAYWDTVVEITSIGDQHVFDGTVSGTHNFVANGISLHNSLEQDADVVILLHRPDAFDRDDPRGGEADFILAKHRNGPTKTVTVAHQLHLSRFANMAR

Protein RecA = biological target: T3, Protein RecA (Mycobacterium tuberculosis, UniProt P9WHJ3); assay: Fluorescence Cell-Free Homogeneous Dose Retest to Identify Inhibitors of RecA-Intein Splicing Activity. [Related pubchem assays (depositor defined):AID2097, AID2223, AID489010, AID492950]; type: functional
T3 sequence (P9WHJ3 whole entry): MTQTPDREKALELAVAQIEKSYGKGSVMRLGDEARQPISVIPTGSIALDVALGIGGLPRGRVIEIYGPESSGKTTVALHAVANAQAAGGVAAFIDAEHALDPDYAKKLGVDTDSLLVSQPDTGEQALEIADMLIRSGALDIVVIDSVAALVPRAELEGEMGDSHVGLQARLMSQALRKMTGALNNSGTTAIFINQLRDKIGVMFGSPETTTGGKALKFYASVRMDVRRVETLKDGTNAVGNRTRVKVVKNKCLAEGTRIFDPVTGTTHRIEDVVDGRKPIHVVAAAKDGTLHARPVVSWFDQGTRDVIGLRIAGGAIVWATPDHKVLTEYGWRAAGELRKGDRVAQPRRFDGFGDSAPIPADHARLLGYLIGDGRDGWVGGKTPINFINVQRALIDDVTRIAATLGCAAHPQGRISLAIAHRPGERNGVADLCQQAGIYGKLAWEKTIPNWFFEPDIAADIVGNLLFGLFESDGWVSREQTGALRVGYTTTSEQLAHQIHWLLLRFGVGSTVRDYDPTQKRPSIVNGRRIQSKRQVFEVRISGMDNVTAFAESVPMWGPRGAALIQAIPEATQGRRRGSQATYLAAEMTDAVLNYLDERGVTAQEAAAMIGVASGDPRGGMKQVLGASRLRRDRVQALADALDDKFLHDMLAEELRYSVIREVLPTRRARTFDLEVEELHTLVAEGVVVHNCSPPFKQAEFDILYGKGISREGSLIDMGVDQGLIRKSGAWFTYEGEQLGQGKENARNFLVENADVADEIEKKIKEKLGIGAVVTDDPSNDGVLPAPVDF

[7] = Shn3 3'UTR reporter inhibitors, dose response, cell-based, Clone20 osteoblasts, firefly luciferase, cherry-picked (AID 624132); type: functional;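 note: firefly luciferase luminescence from reporter carrying the Shn3 3'UTR in osteoblasts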
[8] = HepG2 cell cytotoxicity, dose response, cytotoxicity control for Shn3 inhibitor project, CellTiter-Glo, cherry-picked (AID 624134); type: functional, cell-based
[9] = control 3'UTR Renilla luciferase suppression, dose response, counter-screen for Shn3 inhibitor project, cell-based, Clone20-Shn3RL, cherry-picked (AID 624133); type: functional
[10] = Fluorescence-based cell-based high throughput dose response assay for inhibitors of the interaction of nucleotide-binding oligomerization domain containing 2 (NOD2) and the receptor-interacting serine-threonine kinase 2 (RIPK2).; type: functional; conditions: Homo sapiens
Beta Lactamase = Beta Lactamase (Pseudomonas aeruginosa, UniProt Q932Y6); assay: beta-lactamase reporter inhibitor potency, dose response, artefact control for NOD2-RIPK2 interaction inhibitor project, BLA reporter cells, FRET fluorescence (AID 651552); type: functional, cell-based
Beta Lactamase, sequence (Q932Y6 whole entry, the tested form may be a part): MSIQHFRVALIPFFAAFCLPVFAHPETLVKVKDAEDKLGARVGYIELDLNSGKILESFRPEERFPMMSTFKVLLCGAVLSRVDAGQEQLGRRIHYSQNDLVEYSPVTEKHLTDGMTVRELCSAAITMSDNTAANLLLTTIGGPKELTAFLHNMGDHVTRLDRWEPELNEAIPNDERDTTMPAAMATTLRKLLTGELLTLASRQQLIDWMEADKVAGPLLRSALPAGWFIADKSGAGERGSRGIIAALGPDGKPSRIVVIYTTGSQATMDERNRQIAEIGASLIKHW

Fatty acid synthase [11] = biological target: T4, Fatty acid synthase (Homo sapiens, UniProt P49327); assay: FAS thioesterase domain inhibitors, dose response, biochemical, endpoint fluorescence intensity, uHTS hits (AID 624327); type: functional;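 note: fluorescence from hydrolysis of an O-methyl fluorescein acyl ester substrate by the enzyme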
T4 sequence (P49327 whole entry, the tested form may be a part): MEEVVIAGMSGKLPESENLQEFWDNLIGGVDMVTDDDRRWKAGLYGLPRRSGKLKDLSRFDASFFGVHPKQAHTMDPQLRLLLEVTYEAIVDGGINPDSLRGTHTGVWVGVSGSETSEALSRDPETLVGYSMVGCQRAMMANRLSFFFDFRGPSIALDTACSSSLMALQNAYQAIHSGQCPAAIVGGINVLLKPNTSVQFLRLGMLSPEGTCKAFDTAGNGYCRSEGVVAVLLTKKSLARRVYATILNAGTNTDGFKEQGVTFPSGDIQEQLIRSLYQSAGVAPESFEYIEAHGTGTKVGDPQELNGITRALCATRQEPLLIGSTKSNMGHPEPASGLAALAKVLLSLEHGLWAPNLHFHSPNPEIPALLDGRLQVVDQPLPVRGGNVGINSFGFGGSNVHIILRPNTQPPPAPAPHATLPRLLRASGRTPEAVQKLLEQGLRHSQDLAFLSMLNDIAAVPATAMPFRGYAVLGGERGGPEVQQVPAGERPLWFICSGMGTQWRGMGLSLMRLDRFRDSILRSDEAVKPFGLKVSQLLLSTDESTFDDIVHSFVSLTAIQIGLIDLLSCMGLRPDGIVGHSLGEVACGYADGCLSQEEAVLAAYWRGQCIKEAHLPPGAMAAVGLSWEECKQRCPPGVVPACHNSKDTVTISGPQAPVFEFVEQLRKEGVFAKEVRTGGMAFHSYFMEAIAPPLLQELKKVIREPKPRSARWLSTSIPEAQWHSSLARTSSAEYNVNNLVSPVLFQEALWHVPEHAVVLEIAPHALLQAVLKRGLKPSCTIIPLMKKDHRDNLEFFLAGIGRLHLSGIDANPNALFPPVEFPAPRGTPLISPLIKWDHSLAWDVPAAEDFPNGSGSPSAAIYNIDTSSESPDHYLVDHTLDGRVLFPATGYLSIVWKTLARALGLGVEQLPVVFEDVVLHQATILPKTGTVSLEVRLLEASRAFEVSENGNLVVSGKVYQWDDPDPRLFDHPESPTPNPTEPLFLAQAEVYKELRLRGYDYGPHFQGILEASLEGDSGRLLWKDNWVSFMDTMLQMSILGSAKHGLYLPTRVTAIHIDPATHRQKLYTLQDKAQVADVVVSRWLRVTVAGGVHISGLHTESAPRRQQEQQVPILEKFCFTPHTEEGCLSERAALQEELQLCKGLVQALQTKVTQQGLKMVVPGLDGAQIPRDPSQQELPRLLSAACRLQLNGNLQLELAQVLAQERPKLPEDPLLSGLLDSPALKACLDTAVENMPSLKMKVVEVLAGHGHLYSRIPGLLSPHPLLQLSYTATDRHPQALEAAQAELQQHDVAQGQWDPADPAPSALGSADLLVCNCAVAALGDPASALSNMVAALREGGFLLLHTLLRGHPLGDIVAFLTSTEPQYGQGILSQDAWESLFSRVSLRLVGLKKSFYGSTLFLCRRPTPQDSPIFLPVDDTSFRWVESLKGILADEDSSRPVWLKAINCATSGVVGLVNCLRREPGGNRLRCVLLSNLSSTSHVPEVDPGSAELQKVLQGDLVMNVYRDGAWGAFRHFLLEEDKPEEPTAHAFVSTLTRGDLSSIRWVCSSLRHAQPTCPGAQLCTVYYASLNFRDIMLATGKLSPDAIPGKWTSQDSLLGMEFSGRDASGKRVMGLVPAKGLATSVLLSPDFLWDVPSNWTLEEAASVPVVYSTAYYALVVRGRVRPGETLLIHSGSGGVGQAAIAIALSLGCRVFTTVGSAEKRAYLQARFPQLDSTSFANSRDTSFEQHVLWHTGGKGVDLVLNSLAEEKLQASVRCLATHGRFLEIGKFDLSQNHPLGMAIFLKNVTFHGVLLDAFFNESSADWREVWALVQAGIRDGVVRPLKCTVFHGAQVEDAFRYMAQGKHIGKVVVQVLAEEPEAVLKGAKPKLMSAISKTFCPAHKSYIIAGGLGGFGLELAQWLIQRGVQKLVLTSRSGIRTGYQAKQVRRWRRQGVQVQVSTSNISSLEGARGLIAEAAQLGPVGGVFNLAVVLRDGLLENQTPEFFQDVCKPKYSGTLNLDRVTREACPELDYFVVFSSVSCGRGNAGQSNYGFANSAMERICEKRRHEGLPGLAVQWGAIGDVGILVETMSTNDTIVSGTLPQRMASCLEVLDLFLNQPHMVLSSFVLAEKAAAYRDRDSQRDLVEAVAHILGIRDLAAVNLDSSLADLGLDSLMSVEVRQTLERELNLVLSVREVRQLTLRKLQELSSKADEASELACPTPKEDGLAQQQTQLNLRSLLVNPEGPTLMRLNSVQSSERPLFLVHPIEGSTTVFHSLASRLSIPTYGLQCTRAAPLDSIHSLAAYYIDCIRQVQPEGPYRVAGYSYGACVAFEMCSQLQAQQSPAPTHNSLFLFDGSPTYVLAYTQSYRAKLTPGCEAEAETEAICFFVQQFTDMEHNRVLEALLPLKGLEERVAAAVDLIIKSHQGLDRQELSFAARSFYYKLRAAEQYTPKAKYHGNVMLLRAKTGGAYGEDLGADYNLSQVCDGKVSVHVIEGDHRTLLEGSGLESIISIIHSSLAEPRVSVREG

Fatty acid synthase [12] = biological target: T4, Fatty acid synthase; assay: FAS thioesterase domain inhibitors, dose response, biochemical, kinetic fluorescence intensity (AID 624326); type: functional;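 note: rate of fluorescence rise from hydrolysis of a fluorogenic O-methyl fluorescein ester substrate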
[13] = reduction of endogenous Shn3 mRNA, dose response, qPCR, Clone20 cells, cherry-pick (AID 743415); type: functional, cell-based
[14] = reduction of Shn3 3'UTR firefly luciferase signal, dose response, Schnurri-3 inhibitor project, cell-based, Clone20 osteoblasts, cherry-pick, set 2 (AID 720490); type: functional;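 note: actives lower the luminescence signal as inhibitors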
[15] = T. cruzi growth inhibition in host cells, dose response, cell-based, plate reader, dry powder, set 2 (AID 652275); type: functional
[16] = CFTR ΔF508 corrector activity in bronchial cells, dose response, human bronchial epithelial cells, plate reader, cherry-pick, two tests (AID 743267); type: functional, cell-based
[17] = Luminescence Cell-Based Dose Retest to Confirm Inhibitors of Cancer Stem Cells. [Related pubchem assays (depositor defined):AID2717, AID2721]; type: functional; conditions: Homo sapiens
[18] = HepG2 cell cytotoxicity, dose response, cytotoxicity control, ATP luminescence, cherry-pick, set 6 (AID 1053125); type: functional, cell-based
cells = conditions: A549
HEK293 = assay: HEK293T cell cytotoxicity, dose response, cytotoxicity control, ATP luminescence, cherry-pick samples (AID 687005); type: functional, cell-based; conditions: Homo sapiens;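 note: cells exposed to compound for 48 hours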
[19] = HEK293 Cytotoxicity Assay Measured in Cell-Based System Using Plate Reader - 7071-01_Inhibitor_Dose_CherryPick_Activity_Set2.; type: functional
[20] = biological target: T5, Scavenger receptor class B member 1 (Mus musculus, UniProt Q61009); assay: inhibitors of SR-BI dependent HDL uptake, dose response, ldlA[mSR-BI] CHO cells, fluorescence plate reader, dry powder, set 9 (AID 623880); type: functional, cell-based
T5 sequence (Q61009 whole entry): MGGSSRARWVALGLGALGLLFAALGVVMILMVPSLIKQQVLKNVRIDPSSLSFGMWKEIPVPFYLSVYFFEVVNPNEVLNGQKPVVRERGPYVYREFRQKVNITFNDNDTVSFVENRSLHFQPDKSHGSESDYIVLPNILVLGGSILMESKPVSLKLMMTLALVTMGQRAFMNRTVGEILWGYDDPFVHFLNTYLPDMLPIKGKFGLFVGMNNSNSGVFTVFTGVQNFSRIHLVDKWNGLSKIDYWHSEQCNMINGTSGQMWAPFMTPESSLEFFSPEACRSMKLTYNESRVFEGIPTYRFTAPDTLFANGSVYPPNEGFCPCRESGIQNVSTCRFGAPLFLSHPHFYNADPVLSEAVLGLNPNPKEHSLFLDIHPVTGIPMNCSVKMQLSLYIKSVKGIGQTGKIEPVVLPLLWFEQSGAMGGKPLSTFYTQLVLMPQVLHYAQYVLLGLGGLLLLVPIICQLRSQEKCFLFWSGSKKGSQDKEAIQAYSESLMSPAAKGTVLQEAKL

[21] = biological target: T5, Scavenger receptor class B member 1; assay: inhibitors of SR-BI-mediated HDL uptake, dose response, cell-based, ldlA[mSR-BI] CHO, DiI fluorescence, dry powder, set 10 (AID 624029); type: functional

Paired box protein Pax-8, sequence (Q06710 whole entry): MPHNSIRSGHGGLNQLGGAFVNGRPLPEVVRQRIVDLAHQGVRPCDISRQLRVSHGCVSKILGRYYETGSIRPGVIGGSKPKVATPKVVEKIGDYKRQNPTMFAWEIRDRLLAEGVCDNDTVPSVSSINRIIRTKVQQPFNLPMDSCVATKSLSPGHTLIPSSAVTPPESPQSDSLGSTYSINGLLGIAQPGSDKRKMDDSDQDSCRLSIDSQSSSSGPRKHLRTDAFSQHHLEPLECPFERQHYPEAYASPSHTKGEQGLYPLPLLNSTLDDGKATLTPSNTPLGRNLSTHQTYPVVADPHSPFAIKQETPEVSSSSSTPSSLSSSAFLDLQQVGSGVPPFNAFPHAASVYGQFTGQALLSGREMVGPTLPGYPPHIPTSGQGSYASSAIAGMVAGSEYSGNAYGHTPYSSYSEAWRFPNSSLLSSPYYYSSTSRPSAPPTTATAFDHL

Structure (SMILES): C[C@H]1CCCCO[C@H](CN(C)C(=O)Nc2ccc(C(F)(F)F)cc2)[C@@H](C)CN([C@@H](C)CO)C(=O)c2cc(NS(=O)(=O)c3ccc(Cl)cc3)ccc2O1
- AC50 (Paired box protein Pax-8): 4.68 µM (active)
- AC50 [1]: 51.5 µM (active)
- AC50 [2]: 20.1 µM (active)
- AC50 [3]: 47.6 µM (active)
- AC50 [4]: 37.2 µM (active)

Structure (SMILES): CC(C)[C@H](NC(=O)OC(C)(C)C)c1nnc(S(=O)(=O)Cc2c(F)cccc2Cl)o1
- AC50 [5]: 11.6 µM (active)
- AC50 [6]: 4.9 µM (active)
- EC50 (Protein RecA): 9.61 µM (active)
- AC50 [7]: 1.08 µM (active)
- AC50 [8]: 61.7 µM (active)
- AC50 [9]: 13.5 µM (active)
- IC50 [10]: 1.97 µM (active)
- IC50 (Beta Lactamase): 10.5 µM (inactive)
- IC50 (Fatty acid synthase [11]): 3.02 µM (active)
- IC50 (Fatty acid synthase [12]): 1.61 µM (active)
- AC50 [13]: 12 µM (active)
- AC50 [14]: 3.07 µM (active)

Structure (SMILES): CCC(=O)N1CC[C@@H]2[C@H]1c1cc(-c3ccccc3)ccc1N(C)[C@@H]2CO
- AC50 [15]: 8.49 µM (active)

Structure (SMILES): CC(C)Oc1[nH]cnc2c3ccccc3nc1-2
- AC50 [16]: 9.38 µM (active)

Structure (SMILES): CCCCCCc1cc2cc(S(=O)(=O)c3ccc(C)cc3)c(=O)oc2cc1O
- AC50 [17]: 2.46 µM (active)
- AC50 [18]: > 52 µM (inactive)
- AC50 (cells): 37.9 µM (active)

Structure (SMILES): CCC(=O)N1[C@@H]2Cn3c(cccc3=O)[C@H]1[C@@H](C(=O)NCc1ccccc1)[C@@H]2CO
- AC50 (HEK293): 30.2 µM (active)
- AC50 [19]: 30.2 µM (active)

Structure (SMILES): C[C@@H]1CN([C@H](C)CO)C(=O)c2cc(NC(=O)Cc3cn(C)c4ccccc34)ccc2O[C@H]1CN(C)S(=O)(=O)c1ccc(Cl)cc1
- AC50 [20]: 0.0155 µM (active)
- AC50 [21]: 0.0313 µM (active)
